Consider 26 compounds from patent US10407409B2, “6-(5-hydroxy-1H-pyrazol-1-yl)nicotinamide inhibitors of PHD” (Takeda Pharmaceutical Company Limited, priority 2013, dated 2019).

In test [1] the target is PHD2 enzyme (residues 181-417) (Homo sapiens (Human), UniProt Q9GZT9). Nature of the test: Inhibition of PHD enzyme (LC/MS peptide hydroxylation assay). The class given is biochemical. Particulars: PHD2 (residues 181-417) 5 nM, 60 min pre-incubation; -log(IC50), IC50 molar. The procedure, abridged:
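Hydroxylated peptide quantified by LC/MS after 60 min turnover of 1 uM biotinylated peptide with 2 uM 2-oxoglutarate and 1 mM ascorbate, stopped by excess tight-binding inhibitor. Beforehand, 5 nM enzyme and compound were preincubated 60 min at RT, pH 7.3 HEPES/KCl/TCEP/FeCl2/BSA buffer. Values as pIC50 (−log molar IC50).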

In test [2] the test system is HIF1a protein in H9c2 rat cardiomyocytes. Kind of test: Cell-based HIF-alpha stabilization assay (inhibition of PHD in cells). Particulars: Rattus norvegicus, H9c2, 24 h, 24 hrs compound incubation, HIF1a protein by ELISA, read-out: Inhibition of PHD in cells (pEC50) (converted). An outline of the steps:
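HIF1a stabilization was measured by ELISA on lysates of H9c2 rat cardiomyocytes after 24 h exposure to 11 serial compound concentrations, expressed relative to the desferrioxamine maximum. Curve fits gave EC50. EC50pos denotes the concentration producing half the desferrioxamine maximal response.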

Sequence of PHD2 enzyme (residues 181-417) (Q9GZT9 181-417): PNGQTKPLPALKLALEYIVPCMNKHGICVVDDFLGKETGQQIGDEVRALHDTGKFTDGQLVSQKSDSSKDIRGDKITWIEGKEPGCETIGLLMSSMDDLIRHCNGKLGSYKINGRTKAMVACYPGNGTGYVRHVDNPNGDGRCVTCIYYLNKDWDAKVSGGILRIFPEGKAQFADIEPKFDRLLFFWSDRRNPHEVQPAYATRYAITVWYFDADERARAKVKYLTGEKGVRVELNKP

Consider `Cc1cc(C#N)ccc1-c1cnn(-c2ccc(C(=O)N(C)CCN(C)C)cn2)c1O` [Example 286, 6-(4-(4-cyano-2-methylphenyl)-5-hydroxy-1H-pyrazol-1-yl)-N-(2-(dimethylamino)ethyl)-N-methylnicotinamide], for which the “PHD Inhibition (pIC50)” value in test [1] was 7.94. For the same compound, in test [2], the EC50 is 603 nM.
Taken in the same sequence, the figures for `Cc1cc(C#N)ccc1-c1cnn(-c2ccc(C(=O)N3CCCN(C)CC3)cn2)c1O` [Example 287, 4-(5-hydroxy-1-(5-(4-methyl-1,4-diazepane-1-carbonyl)pyridin-2-yl)-1H-pyrazol-4-yl)-3-methylbenzonitrile] were 8.10 and 3550 nM.
On the same counts, the results for `Cc1cc(C#N)ccc1-c1cnn(-c2ccc(C(=O)N(C)C3CCN(C)CC3)cn2)c1O` [Example 289, 6-(4-(4-cyano-2-methylphenyl)-5-hydroxy-1H-pyrazol-1-yl)-N-methyl-N-(1-methylpiperidin-4-yl)nicotinamide] are 8.03 and 1230 nM.
On the same counts, the results for `Cc1cc(C#N)ccc1-c1cnn(-c2ccc(C(=O)N3CCN(C)CC3)cn2)c1O` [Example 290, 4-(5-hydroxy-1-(5-(4-methylpiperazine-1-carbonyl)pyridin-2-yl)-1H-pyrazol-4-yl)-3-methylbenzonitrile] are 8.33 and 912 nM.
For `Cc1cc(C#N)ccc1-c1cnn(-c2ccc(C(=O)N3CCN(C(C)(C)C)CC3)cn2)c1O` [Example 291, 4-(1-(5-(4-(tert-butyl)piperazine-1-carbonyl)pyridin-2-yl)-5-hydroxy-1H-pyrazol-4-yl)-3-methylbenzonitrile], the “PHD Inhibition (pIC50)” value in test [1] is on record as 8.15. The EC50 in test [2] is 977 nM.
Taken in the same sequence, the figures for `Cc1cc(C#N)ccc1-c1cnn(-c2ccc(C(=O)N3C[C@H]4CN(C)C[C@H]4C3)cn2)c1O` [Example 292, 4-(5-hydroxy-1-(5-((3aR,6aS)-5-methyloctahydropyrrolo[3,4-c]pyrrole-2-carbonyl)pyridin-2-yl)-1H-pyrazol-4-yl)-3-methylbenzonitrile] were 8.04 and 407 nM.
With `Cc1cc(C#N)ccc1-c1cnn(-c2ccc(C(=O)N3CCC4(CN(C)C4)C3)cn2)c1O` [Example 293, 4-(5-hydroxy-1-(5-(2-methyl-2,6-diazaspiro[3.4]octane-6-carbonyl)pyridin-2-yl)-1H-pyrazol-4-yl)-3-methylbenzonitrile], the “PHD Inhibition (pIC50)” value in test [1] was 8.05. In addition, the EC50 in test [2] is 324 nM.
With `CCCN1CCC(N(C)C(=O)c2ccc(-n3ncc(-c4ccc(C#N)cc4C)c3O)nc2)CC1` [Example 294, 6-(4-(4-cyano-2-methylphenyl)-5-hydroxy-1H-pyrazol-1-yl)-N-methyl-N-(1-propylpiperidin-4-yl)nicotinamide], the “PHD Inhibition (pIC50)” value in test [1] worked out at 8.22. In test [2], the EC50 was 1120 nM.
Taken in the same sequence, the figures for `Cc1cc(C#N)ccc1-c1cnn(-c2ccc(C(=O)N(C)C3CCN(C4CC4)CC3)cn2)c1O` [Example 296, 6-(4-(4-cyano-2-methylphenyl)-5-hydroxy-1H-pyrazol-1-yl)-N-(1-cyclopropylpiperidin-4-yl)-N-methylnicotinamide] were 8.23 and 1000 nM.
Taken in the same sequence, the figures for `Cc1cc(C#N)ccc1-c1cnn(-c2ccc(C(=O)N3CC(N(C)C4CCC4)C3)cn2)c1O` [Example 297, 4-(1-(5-(3-(cyclobutyl(methyl)amino)azetidine-1-carbonyl)pyridin-2-yl)-5-hydroxy-1H-pyrazol-4-yl)-3-methylbenzonitrile] were 8.39 and 525 nM.
Taken in the same sequence, the figures for `Cc1cc(C#N)ccc1-c1cnn(-c2ccc(C(=O)N3CC(N(C)C4CC4)C3)cn2)c1O` [Example 298, 4-(1-(5-(3-(cyclopropyl(methyl)amino)azetidine-1-carbonyl)pyridin-2-yl)-5-hydroxy-1H-pyrazol-4-yl)-3-methylbenzonitrile] were 8.18 and 977 nM.
`Cc1cc(C#N)ccc1-c1cnn(-c2ccc(C(=O)N3CCN(C)CC(F)(F)C3)cn2)c1O` [Example 299, 4-(1-(5-(6,6-difluoro-4-methyl-1,4-diazepane-1-carbonyl)pyridin-2-yl)-5-hydroxy-1H-pyrazol-4-yl)-3-methylbenzonitrile]: the “PHD Inhibition (pIC50)” value in test [1] is 8.46. In test [2], the EC50 was 1050 nM.
As to `COCCCNC(=O)c1ccc(-n2ncc(-c3ccc(C#N)cc3C3CC3)c2O)nc1` [Example 300, 6-(4-(4-cyano-2-cyclopropylphenyl)-5-hydroxy-1H-pyrazol-1-yl)-N-(3-methoxypropyl)nicotinamide], the “PHD Inhibition (pIC50)” value in test [1] is 7.99. Further, in test [2], the EC50 was 17.4 nM.
On the same counts, the results for `Cc1cc(C#N)ccc1-c1cnn(-c2ccc(C(=O)N(C)C)cn2)c1O` [Example 301, 6-(4-(4-cyano-2-methylphenyl)-5-hydroxy-1H-pyrazol-1-yl)-N,N-dimethylnicotinamide] are 8.67 and 251 nM.
Take `Cc1cc(C#N)ccc1-c1cnn(-c2ccc(C(=O)NC3CCN(CC(F)(F)F)CC3)cn2)c1O` [Example 302, 6-(4-(4-cyano-2-methylphenyl)-5-hydroxy-1H-pyrazol-1-yl)-N-(1-(2,2,2-trifluoroethyl)piperidin-4-yl)nicotinamide]: in test [1], the “PHD Inhibition (pIC50)” value is listed as 8.41. Besides, the EC50 in test [2] is 288 nM.
For `Cc1cc(C#N)ccc1-c1cnn(-c2ccc(C(=O)N(C)CCCN3CCCCC3)cn2)c1O` [Example 303, 6-(4-(4-cyano-2-methylphenyl)-5-hydroxy-1H-pyrazol-1-yl)-N-methyl-N-(3-(piperidin-1-yl)propyl)nicotinamide], the “PHD Inhibition (pIC50)” value in test [1] amounted to 7.88. Also, the EC50 in test [2] was 282 nM.
For `CN(CCCN1CCCCC1)C(=O)c1ccc(-n2ncc(-c3ccc(C#N)cc3)c2O)nc1` [Example 304, 6-(4-(4-cyanophenyl)-5-hydroxy-1H-pyrazol-1-yl)-N-methyl-N-(3-(piperidin-1-yl)propyl)nicotinamide], the “PHD Inhibition (pIC50)” value in test [1] came out at 7.23. Also, the EC50 in test [2] is 2820 nM.
Taken in the same sequence, the figures for `CCN1CCN(C(=O)c2ccc(-n3ncc(-c4ccc(C#N)c(F)c4C)c3O)nc2)CC1` [Example 305, 4-(1-(5-(4-ethylpiperazine-1-carbonyl)pyridin-2-yl)-5-hydroxy-1H-pyrazol-4-yl)-2-fluoro-3-methylbenzonitrile] were 8.27 and 1320 nM.
Consider `CCN1CCN(C(=O)c2ccc(-n3ncc(-c4cc(F)c(C#N)cc4C)c3O)nc2)CC1` [Example 306, 4-(1-(5-(4-ethylpiperazine-1-carbonyl)pyridin-2-yl)-5-hydroxy-1H-pyrazol-4-yl)-2-fluoro-5-methylbenzonitrile], for which, in test [1], the “PHD Inhibition (pIC50)” value worked out at 8.29. The EC50 in test [2] was 4570 nM.
Take `Cc1c(-c2cnn(-c3ccc(C(=O)N4CCN(C5CC5)CC4)cn3)c2O)ccc(C#N)c1F` [Example 307, 4-(1-(5-(4-cyclopropylpiperazine-1-carbonyl)pyridin-2-yl)-5-hydroxy-1H-pyrazol-4-yl)-2-fluoro-3-methylbenzonitrile]: the “PHD Inhibition (pIC50)” value in test [1] is 8.39. In addition, in test [2], the EC50 was 2340 nM.
As to `Cc1cc(C#N)c(F)cc1-c1cnn(-c2ccc(C(=O)N3CCN(C4CC4)CC3)cn2)c1O` [Example 308, 4-(1-(5-(4-cyclopropylpiperazine-1-carbonyl)pyridin-2-yl)-5-hydroxy-1H-pyrazol-4-yl)-2-fluoro-5-methylbenzonitrile], the “PHD Inhibition (pIC50)” value in test [1] stood at 8.28. The EC50 in test [2] is 6610 nM.
Consider `CCN1CCN(C(=O)c2ccc(-n3ncc(-c4ccc(C#N)c(C)c4C)c3O)nc2)CC1` [Example 309, 4-(1-(5-(4-ethylpiperazine-1-carbonyl)pyridin-2-yl)-5-hydroxy-1H-pyrazol-4-yl)-2,3-dimethylbenzonitrile], for which, in test [1], the “PHD Inhibition (pIC50)” value is on record as 7.97. Besides, the EC50 in test [2] is 2630 nM.
Taken in the same sequence, the figures for `Cc1c(C#N)ccc(-c2cnn(-c3ccc(C(=O)N4CCN(C5CC5)CC4)cn3)c2O)c1C` [Example 310, 4-(1-(5-(4-cyclopropylpiperazine-1-carbonyl)pyridin-2-yl)-5-hydroxy-1H-pyrazol-4-yl)-2,3-dimethylbenzonitrile] were 8.13 and 3160 nM.
On the same counts, the results for `Cc1cc(C#N)ccc1-c1cnn(-c2ccc(C(=O)N3CCN(CC(F)F)CC3)cn2)c1O` [Example 311, 4-(1-(5-(4-(2,2-difluoroethyl)piperazine-1-carbonyl)pyridin-2-yl)-5-hydroxy-1H-pyrazol-4-yl)-3-methylbenzonitrile] are 8.51 and 1480 nM.
For the compound `Cc1cc(C#N)ccc1-c1cnn(-c2ccc(C(=O)N3CCN(CC(F)(F)F)CC3)cn2)c1O` [Example 312, 4-(5-hydroxy-1-(5-(4-(2,2,2-trifluoroethyl)piperazine-1-carbonyl)pyridin-2-yl)-1H-pyrazol-4-yl)-3-methylbenzonitrile], in test [1], the “PHD Inhibition (pIC50)” value stood at 8.50. The EC50 in test [2] is 1820 nM.
Taken in the same sequence, the figures for `Cc1cc(C#N)ccc1-c1cnn(-c2ccc(C(=O)N(C)CCCN(C)C)cn2)c1O` [Example 313, 6-(4-(4-cyano-2-methylphenyl)-5-hydroxy-1H-pyrazol-1-yl)-N-(3-(dimethylamino)propyl)-N-methylnicotinamide] were 7.59 and 1120 nM.
